In patent publication US20250057802A1, “BROAD-SPECTRUM ANTIVIRAL DRUGS” (FRAUNHOFER-GESELLSCHAFT ZUR FÖRDERUNG DER ANGEWANDTEN …, priority 2021, published 2025):

Legend:
[1] = system: SARS-CoV-2; test: SARS-CoV-2 viral inhibition assay on Vero E6 cells; type: cell-based; details: Severe acute respiratory syndrome coronavirus 2, Vero C1008, virus incubated with compound 10 min at 37° C., 27 hours post-infection
[2] = system: HEp-2 cells; test: in vitro cytotoxicity analysis (CellTiter-Glo Luminescent Cell Viability Assay); type: cell-based, human; design: unit not given here; details: without RSV-infection, 48 h post-treatment
Description: FIG. 1A, FIG. 2A, FIG. 3A, FIG. 4A, FIG. 5A, and FIG. 6A show dose-response curves for identified inhibitors against RSV. RSV was incubated with increasing concentrations of compounds for 10 min at 37° C. before the compound-virus mixtures were added to human epithelial cells (HEp-2). 2 dpi, infection rates were measured by counting infected cells. Vehicle-treated cells were set as the reference at 100% and used to normalize the data. Shown values represent mean±SD (n=3). The IC50 was determined by fitting the data to a dose-response curve using nonlinear regression analysis (GraphPad Prism, version 6.02). FIG. 1B, FIG. 2B, FIG. 3B, FIG. 4B, FIG. 5B, and FIG. 6B show dose-response curves for identified inhibitors (the same as identified at the top of the respective figures) in in vitro cytotoxicity analysis. HEp-2 cells were treated with increasing concentration of compounds without RSV-infection to assess potential cytotoxicity of the compounds. 48 h post-treatment cells were analyzed using CellTiter-Glo® Luminescent Cell Viability Assay (Promega) to determine cell viability rates. Vehicle-treated cells were set as the reference at 100% of viability and used to normalize the data. Shown values represent mean+SD (n=3).

[3] = system: RSV; test: in vitro RSV inhibitory assay (virus pre-incubated with compound, HEp-2 cells, infected cells counted); type: cell-based, Human orthopneumovirus (RSV); details: human respiratory syncytial virus, 10 min; RSV incubated with compound 10 min at 37° C., added to HEp-2 cells, 2 dpi
[4] = stability in solution; type: physicochemical; details: 500 μM in DMSO/PBS (5:95 v/v); room temperature or 37° C.; versus 4,5-DCQA (reference)

O=C(/C=C/c1ccc(O)c(O)c1)O[C@@H]1[C@H](O)C[C@@](O)(C(=O)O)C[C@H]1OC(=O)/C=C/c1ccc(O)c(O)c1 [4,5-DCQA, reference compound]
IC50 [1]: 218 nM
Cytotoxic concentration on HEp-2 cells [2]: >80000
IC50 [3]: 1090 nM

O=C(OCCCOC(=O)c1cc(O)c(O)c(O)c1)c1cc(O)c(O)c(O)c1 [Compound 1, 3-(3,4,5-trihydroxybenzoyl)oxypropyl 3,4,5-trihydroxybenzoate]
Cytotoxic concentration on HEp-2 cells [2]: 72737
IC50 [3]: 129 nM

O=C(OCCCCCOC(=O)c1cc(O)c(O)c(O)c1)c1cc(O)c(O)c(O)c1 [Compound 2, 5-(3,4,5-trihydroxybenzoyl)oxypentyl 3,4,5-trihydroxybenzoate]
Cytotoxic concentration on HEp-2 cells [2]: >80000
IC50 [3]: 4960 nM

O=C(OCCCCCCCCOC(=O)c1cc(O)c(O)c(O)c1)c1cc(O)c(O)c(O)c1 [Compound 3, 8-(3,4,5-trihydroxybenzoyl)oxyoctyl 3,4,5-trihydroxybenzoate]
Cytotoxic concentration on HEp-2 cells [2]: 9197
IC50 [3]: 145 nM

CC(C)(COC(=O)c1cc(O)c(O)c(O)c1)COC(=O)c1cc(O)c(O)c(O)c1 [Compound 4, [2,2-dimethyl-3-(3,4,5-trihydroxybenzoyl)oxy-propyl]3,4,5-trihydroxybenzoate]
Cytotoxic concentration on HEp-2 cells [2]: 63163
IC50 [3]: 162 nM

O=C(OCCOCCOC(=O)c1cc(O)c(O)c(O)c1)c1cc(O)c(O)c(O)c1 [Compound 5, 2-[2-(3,4,5-trihydroxybenzoyl)oxyethoxy]ethyl 3,4,5-trihydroxybenzoate]
Cytotoxic concentration on HEp-2 cells [2]: 638066
IC50 [3]: 9330 nM

O=C(O[C@@H]1CCC[C@H](OC(=O)c2cc(O)c(O)c(O)c2)C1)c1cc(O)c(O)c(O)c1 [Compound 6, [(1R,3S)-3-(3,4,5-trihydroxybenzoyl)oxycyclohexyl]3,4,5-trihydroxybenzoate]
Cytotoxic concentration on HEp-2 cells [2]: 61709
IC50 [3]: 165 nM

O=C(OCC(O)COC(=O)c1cc(O)c(O)c(O)c1)c1cc(O)c(O)c(O)c1 [Compound 7, [2-hydroxy-3-(3,4,5-trihydroxybenzoyl)oxy-propyl]3,4,5-trihydroxybenzoate]
Cytotoxic concentration on HEp-2 cells [2]: >80000
IC50 [3]: 339 nM

NC(COC(=O)c1cc(O)c(O)c(O)c1)COC(=O)c1cc(O)c(O)c(O)c1 [Compound 8, [2-amino-3-(3,4,5-trihydroxybenzoyl)oxy-propyl]3,4,5-trihydroxybenzoate]
Cytotoxic concentration on HEp-2 cells [2]: 66234
IC50 [3]: 87.7 nM

O=C(OCC(COC(=O)c1cc(O)c(O)c(O)c1)OC(=O)c1cc(O)c(O)c(O)c1)c1cc(O)c(O)c(O)c1 [Compound 9, 2,3-bis[(3,4,5-trihydroxybenzoyl)oxy]propyl 3,4,5-trihydroxybenzoate]
Cytotoxic concentration on HEp-2 cells [2]: 49099.5
IC50 [3]: 55.5 nM

O=C(OCC(COC(=O)c1cc(O)c(O)c(O)c1)COC(=O)c1cc(O)c(O)c(O)c1)c1cc(O)c(O)c(O)c1 [Compound 10, [3-(3,4,5-trihydroxybenzoyl)oxy-2-[(3,4,5-trihydroxybenzoyl)oxymethyl]propyl]3,4,5-trihydroxybenzoate]
Cytotoxic concentration on HEp-2 cells [2]: 75145
IC50 [3]: 47.2 nM

CC(COC(=O)c1cc(O)c(O)c(O)c1)(COC(=O)c1cc(O)c(O)c(O)c1)COC(=O)c1cc(O)c(O)c(O)c1 [Compound 11, [2-methyl-3-(3,4,5-trihydroxybenzoyl)oxy-2-[(3,4,5-trihydroxybenzoyl)oxymethyl]-propyl]3,4,5-trihydroxybenzoate]
Cytotoxic concentration on HEp-2 cells [2]: 47303
IC50 [3]: 36.7 nM

CC(COC(=O)c1ccccc1)(COC(=O)c1cc(O)c(O)c(O)c1)COC(=O)c1cc(O)c(O)c(O)c1 [Compound 12, [2-(benzoyloxymethyl)-2-methyl-3-(3,4,5-trihydroxybenzoyl)oxy-propyl]3,4,5-trihydroxybenzoate]
Cytotoxic concentration on HEp-2 cells [2]: 34098.5
IC50 [3]: 105 nM

CC(COC(=O)c1ccccc1)(COC(=O)c1ccccc1)COC(=O)c1cc(O)c(O)c(O)c1 [Compound 13, [3-benzoyloxy-2-(benzoyloxymethyl)-2-methyl-propyl]3,4,5-trihydroxybenzoate]
Cytotoxic concentration on HEp-2 cells [2]: 13042
IC50 [3]: 480 nM

O=C(NCCCNC(=O)c1cc(O)c(O)c(O)c1)c1cc(O)c(O)c(O)c1 [Compound 14, 3,4,5-trihydroxy-N-[3-[(3,4,5-trihydroxybenzoyl)amino]propyl]benzamide]
Cytotoxic concentration on HEp-2 cells [2]: 15677
IC50 [3]: 367 nM

O=C(NCCCCCNC(=O)c1cc(O)c(O)c(O)c1)c1cc(O)c(O)c(O)c1 [Compound 15, 3,4,5-trihydroxy-N-[5-[(3,4,5-trihydroxybenzoyl)amino]pentyl]benzamide]
Cytotoxic concentration on HEp-2 cells [2]: 45401
IC50 [3]: 408 nM

O=C(NCCCCCCCCCCNC(=O)c1cc(O)c(O)c(O)c1)c1cc(O)c(O)c(O)c1 [Compound 16, 3,4,5-trihydroxy-N-[10-[(3,4,5-trihydroxybenzoyl)amino]decyl]benzamide]
Cytotoxic concentration on HEp-2 cells [2]: >80000
IC50 [3]: 767 nM

O=C(NCCN(CCNC(=O)c1cc(O)c(O)c(O)c1)C(=O)c1cc(O)c(O)c(O)c1)c1cc(O)c(O)c(O)c1 [Compound 17, 3,4,5-trihydroxy-N-[2-[(3,4,5-trihydroxybenzoyl)-[2-[(3,4,5-trihydroxybenzoyl)-amino]-ethyl]amino]ethyl]benzamide]
Cytotoxic concentration on HEp-2 cells [2]: 36216
IC50 [3]: 155 nM

CC(CNC(=O)c1cc(O)c(O)c(O)c1)(CNC(=O)c1cc(O)c(O)c(O)c1)CNC(=O)c1cc(O)c(O)c(O)c1 [Compound 18, 3,4,5-trihydroxy-N-[2-methyl-3-[(3,4,5-trihydroxybenzoyl)amino]-2-[[(3,4,5-trihydroxy-benzoyl)amino]methyl]propyl]benzamide]
Cytotoxic concentration on HEp-2 cells [2]: >80000
IC50 [3]: 59.5 nM

CC(CNC(=O)c1ccc(O)cc1)(CNC(=O)c1ccc(O)cc1)CNC(=O)c1ccc(O)cc1 [Compound 19, 4-hydroxy-N-[3-[(4-hydroxybenzoyl)amino]-2-[[(4-hydroxybenzoyl)amino]methyl]-2-methyl-propyl]benzamide]
Cytotoxic concentration on HEp-2 cells [2]: >80000

CC(CNC(=O)c1cccc(O)c1)(CNC(=O)c1cccc(O)c1)CNC(=O)c1cccc(O)c1 [Compound 20, 3-hydroxy-N-[3-[(3-hydroxybenzoyl)amino]-2-[[(3-hydroxybenzoyl)amino]methyl]-2-methyl-propyl]benzamide]
Cytotoxic concentration on HEp-2 cells [2]: 76260

CC(CNC(=O)c1ccc2c(c1)OCO2)(CNC(=O)c1ccc2c(c1)OCO2)CNC(=O)c1ccc2c(c1)OCO2 [Compound 21, N-[3-(1,3-benzodioxole-5-carbonylamino)-2-[(1,3-benzodioxole-5-carbonylamino)-methyl]-2-methyl-propyl]-1,3-benzodioxole-5-carboxamide]
Cytotoxic concentration on HEp-2 cells [2]: >80000

CC(CNC(=O)c1ccc(O)cc1O)(CNC(=O)c1ccc(O)cc1O)CNC(=O)c1ccc(O)cc1O [Compound 22, N-[3-[(2,4-dihydroxybenzoyl)amino]-2-[[(2,4-dihydroxybenzoyl)amino]methyl]-2-methyl-propyl]-2,4-dihydroxy-benzamide]
IC50 [1]: 75.1 nM
Cytotoxic concentration on HEp-2 cells [2]: 17473

CC(CNC(=O)c1ccc(O)c(O)c1)(CNC(=O)c1ccc(O)c(O)c1)CNC(=O)c1ccc(O)c(O)c1 [Compound 23, N-[3-[(3,4-dihydroxybenzoyl)amino]-2-[[(3,4-dihydroxybenzoyl)amino]methyl]-2-methyl-propyl]-3,4-dihydroxy-benzamide]
IC50 [1]: 26 nM
stability in solution [4]: improved stability
Cytotoxic concentration on HEp-2 cells [2]: >80000
IC50 [3]: 35.7 nM

CC(CNC(=O)c1cccc(O)c1O)(CNC(=O)c1cccc(O)c1O)CNC(=O)c1cccc(O)c1O [Compound 24, N-[3-[(2,3-dihydroxybenzoyl)amino]-2-[[(2,3-dihydroxybenzoyl)amino]methyl]-2-methyl-propyl]-2,3-dihydroxy-benzamide]
Cytotoxic concentration on HEp-2 cells [2]: 5822.5
